System: SLE-prone (NZBxNZW)F1 female mouse
Test: Intensity of immune complex deposits (ICD) in kidneys
Assay type: in vivo, (NZBxNZW)F1 mice
Protocol: The same batch of drug substance was used in this study and in the first Phase I clinical trial with Compound 1. The mice were followed for anti-dsDNA antibodies and for proteinuria. When the mice were sacrificed, the intensity of ICD was determined in kidneys.

For H-GYYWSWIRQPPGKGEEWIG-OH [Compound 1], the “ICD (Mean ± SEM)” value (50 μg/mouse in Captisol ®, intensity scale 0 = none to 3 = severe/extremely intense) was 1.90 ± 0.23 and the “intensity of immune complex deposits in kidney sections” value (25 or 50 μg/mouse dissolved in Captisol®, FIG. 6) was “much lower than that observed in the control group”.
